Source: patent publication US6335465B1, “Sterilized 5-aminolevulinic acid” (Dusa Pharmaceuticals, Inc., priority 1997, dated 2002)

Legend:
Format in all cases: physicochemical
[1] = Color of crystalline ALA hydrochloride in sealed vials after gamma irradiation; details: crystals in sealed 60 ml glass vials after gamma radiation at the target dose (0, 15 or 30 KGys)
Method: ALA hydrochloride salt was obtained from Sochinaz, S.A., Vionnez, Switzerland. 1.65 grams of ALA hydrochloride salt was placed into 60 ml glass vials. 360 vials of crystalline non-irradiated ALA were prepared. of these, 225 vials were sealed under ambient conditions,and were irradiated with gamma radiation as shown in Table 1. Crystalline ALA was first micronized by pulverizing into fine particles a few μm in diameter by a jet mill by Micro-Macinazione, S.A. to determine if further reducing the crystalline size would have any effect on the color of the irradiated ALA. After micronization, 1.65 grams of ALA hydrochloride salt was placed into 60 ml glass vials. A total of 270 vials of crystalline non-irradiated ALA were prepared.

[2] = Degradation of crystalline ALA under gamma radiation; details: gamma radiation dose of 25 kilograys or greater
Description: This is significant, in that the United States Food and Drug Administration's (“FDA”) level of gamma irradiation for “overkill” is 25 kilograys. This is a level at which the FDA presumes, without evidence, that virtually all microorganisms have been killed.

[3] = Comparison of irradiated and non-irradiated ALA (spectroscopic, chromatographic, solution pH, solubility profile, calorimetry; FIGS. 2-14); details: solution pH or solubility profile, except for the color
Description: This is explained more fully below with respect to FIGS. 2 to 14.
Although not intending to be bound by any theory, it appears that the color imparted by irradiation is due to F-centers.
The calorimetric measurements of FIGS. 2 and 3 indicate that any major structural differences are present in quantities of less than 1% of the total ALA amount, or that the type of any structural modification is such that the sensitivity of the calorimetric assay to the change is below the capacity of the instrumentation.
Spectral reflectance as shown in FIGS. 4 and 8-10 is very sensitive to spectral differences at or near the surface, while photoacoustic spectroscopy (“PAS”) as shown in FIGS. 5-7 is sensitive to changes both at the surface and the interior of the crystal.
Subsequent analysis of the type described above with respect to FIGS. 2-14, confirmed that there was no discernible difference in structure or pharmacological activity between the irradiated examples and the non-irradiated control comparative examples.

[4] = Storage stability of gamma irradiated ALA in the sealed bottle; details: despite the yellow color of the irradiated crystals
Description: The present invention is based on the finding that sterile ALA can be made and prepared well in advance of its final use, despite the extreme degradation generally found with ALA as noted above.

With `NCC(=O)CCC(=O)O` [Comp. Ex. 1, 5-aminolevulinic acid] the color [1] was “off white”.

For `NCC(=O)CCC(=O)O` [Comp. Ex. 2, 5-aminolevulinic acid], the color [1] was “off white”.

With `NCC(=O)CCC(=O)O` [Comp. Ex. 3, 5-aminolevulinic acid] the color [1] was “off white”.

In the case of `NCC(=O)CCC(=O)O` [Comp. Ex. 4, 5-aminolevulinic acid], the color [1] is reported as “off white”.

In the case of `NCC(=O)CCC(=O)O` [Example 1, 5-aminolevulinic acid], the color [1] is reported as “yellow”.

With `NCC(=O)CCC(=O)O` [Example 2, 5-aminolevulinic acid] the color [1] was “yellow”.

For `NCC(=O)CCC(=O)O` [Example 3, 5-aminolevulinic acid], the color [1] was “yellow”.

With `NCC(=O)CCC(=O)O` [Example 4, 5-aminolevulinic acid] the color [1] was “yellow”.

For `NCC(=O)CCC(=O)O` [Example 5, 5-aminolevulinic acid], the color [1] was “yellow”.

For `NCC(=O)CCC(=O)O` [Example 6, 5-aminolevulinic acid], the color [1] was “yellow”.

For `NCC(=O)CCC(=O)O` [Example 7, 5-aminolevulinic acid], the color [1] was “yellow”.

For `NCC(=O)CCC(=O)O` [Example 8, 5-aminolevulinic acid], the color [1] was “yellow”.

In the case of `NCC(=O)CCC(=O)O` [Example 9, 5-aminolevulinic acid], the color [1] is reported as “yellow”.

For `NCC(=O)CCC(=O)O` [Example 10, 5-aminolevulinic acid], the color [1] was “yellow”.

In the case of `NCC(=O)CCC(=O)O` [crystalline ALA, 5-aminolevulinic acid], the “degradation of the ALA at high gamma dose” value [2] is reported as “without detectable degradation”.

With `NCC(=O)CCC(=O)O` [irradiated crystalline ALA, 5-aminolevulinic acid] the “chemical properties versus non-irradiated ALA” value [3] was “has not been distinguished in any chemical property from non-irradiated ALA” and the degradation after irradiation [4] was “had not been degraded”.
